Results reported in patent publication US7579373B2, “Targeted bisplatinum polyamines as pro-drugs: selective release of platinum” (Virginia Commonwealth University, priority 2002, dated 2009).
Like-named read-outs stand apart in the source and are kept apart here.

Experiments:
[1] = tested on: L1210/DDP; test: Cellular accumulation in L1210/DDP cells; type: cell-based, murine; conditions: 2 hours of exposure; (±SE), 3 experiments of 2 determinations
Procedure: (§1) Cellular accumulation. The cellular accumulation assays followed published procedures (7). Briefly, cells were resuspended at 10^7/mL in media supplemented with […]. Platinum complexes were added, and samples were incubated at 37° C. in 5% CO2. At 0 and 2 hours aliquots were removed for determination of cell concentrations and for measurement of platinum content. For the latter, aliquots were washed three times in cold phosphate buffered saline, resuspended in 1% Triton-X in water, and sonicated. Platinum content was measured by flameless atomic absorption spectroscopy.
(§2) The cellular accumulation of the blocked Pt compound 2 was also investigated. […] Based solely on charge considerations the BOC-spermidine with a charge of 2+ should have cellular uptake similar to 1,1/t,t (n=6). The enhanced uptake could be explained by some hydrolysis in media or plasma producing small amounts of the protonated 1,1/t,t-spermidine. Considering the potency of polynuclear-polyamine compounds, a small percentage of hydrolysis could have a significant impact on in vivo activity.

[2] = tested on: L1210/0; test: Growth inhibition in L1210/0 cells; type: cell-based, murine; conditions: 2 hours of exposure; mean (±SE), 3 experiments of 2 determinations
Excerpt: To examine the pro-drug potential in a biological setting, a comparison of the pharmacological properties of the blocked polyamine compounds in L1210 murine leukemia cells was undertaken.

[3] = tested on: L1210/0; test: Cellular accumulation in L1210/0 cells; type: cell-based, murine; conditions: 2 hours of exposure; (±SE), 3 experiments of 2 determinations
Procedure: as §1, §2

[4] = tested on: L1210/DDP; test: Growth inhibition in L1210/DDP cells; type: cell-based, murine; conditions: for IC50: 2 hours of exposure, mean (±SE), 3 experiments of 2 determinations; for RF, resistance factor: IC50 L1210/DDP / IC50 L1210/0, 2 hours of exposure
[5] = type: physicochemical; conditions: for Rate constant for the deprotection: first order; for % 1 (percentage of 1 of the overall integration in the chromatogram after incubation): uncorrected
Procedure: Analyses of the products and hydrolysis studies were carried out on an analytical Beckman System Gold Nouveau HPLC instrument with UV detection at 215 nm. A Lichrosphere RP-8 column (5 μm particle size, dimensions 250 mm×4 mm) was used with a solvent gradient from water/methanol 97:3 (0.05 M NaClO4, 1% NaCl) to water/methanol 70:30 (0.05 M NaClO4, 2% NaCl).
Hydrolysis Study. For the hydrolysis experiments 10^−3 mMol complex were dissolved in 1 mL of nanopure water. The pH of the solutions was adjusted by addition of HNO3 (0.1 M, 0.01 M) and NaOH (0.1 M, 0.01 M), respectively. The samples were incubated in a water bath at 37° C. and aliquots of 20 μL were taken from the bulk solution for HPLC analysis. The pH values of the samples were controlled in regular intervals and readjusted if necessary.
The hydrolysis of the protective groups of compounds 2-4 was monitored at 37° C. at various pH values. […] In addition, the chromatogram of 2 contained a peak of a minor impurity (ca 0.4%) which remained unchanged during the timecourse of the reaction. Deprotection of the secondary amino function leads to the appearance of a signal for the unprotected spermidine complex 1 that, as a consequence of the increased cationic charge, is well separated from the signal of the N4 blocked precursor. The area percentage of the integrated signal of the unprotected species is taken as an estimate for the amount of hydrolysis at a given timepoint. To allow for a more accurate quantitative comparison of results, the extinction coefficients for compounds 1-4 were determined at 215 nm (Table 1). The integral values of the blocked compounds have been corrected for the higher absorbance of these species at the observed wavelength compared to the unprotected species 1. Table 2 provides a summary of the amount of hydrolysis for all samples before and after the correction. Rate constants were calculated based on the corrected integral values.
The hydrolysis of the blocking groups of on the N4 position of compounds 5-7 was monitored at 37° C. over a pH range of 6-8.
The amount of 1,1/t,t-spermidine released over time is depicted in FIG. 8. No other products were detected, trifluoroacetate, originating from the hydrolysis reaction, is not retained on the column under the present conditions and coelutes with the other anions (Cl^− from 5, NO3^− from pH adjustment). In order to obtain rate constants for the conversion of 7 to 1,1/t,t-spermidine, the integral values of the chromatograms were corrected for the different absorption of the species at the observed wavelength (ε215: 1, 3.64·10^3; 5, 7.62·10^3; 6, 10.4·10^3; 7, 9.46·10^3 L.Mol^−1 .cm^−1). Concentrations were calculated based on the assumption that the sum of the concentrations of both species at every time point equals the original concentration of 7 at the start of the experiment. First order rate constants were obtained using the program MicroMath Scientist Version 2.01. The results are summarized in Table 3 and compared with values obtained for BOC and Fmoc protected spermidine complexes.

[6] = tested on: A2780/CDDP; test: SRB growth inhibition assay, A2780/CDDP; type: cell-based, human; conditions: for IC50: 96 h exposure; for RF A2780/CDDP: IC50 resistant/IC50 parent line, 96 h
Procedure: (§3) Cell culture. A2780, A2780/CDDP, CH1, CH1/CDDP, 41M and 41M/CDDP cell lines were used in this study and maintained according to published procedures. (8,9).
(§4) Growth inhibition assay. The Sulforhodamine B (SRB) assay was used to determine growth inhibition potency of platinum drugs (10). The cells were seeded in 96-well microtitre plates at 3-8×10^3 cells/well in 160 μL growth medium and allowed to attach overnight. Platinum agents were then added after serial dilution in quadruplicate wells and exposed to cells for 2 or 96 hours. After the 2 hours drug incubations were complete, plates were washed free of drug with phosphate-buffered saline (PBS) and then refed with normal growth medium for a further 94 hours. Quantitation of cell growth in treated and control wells was then assessed using 0.4% SRB dissolved in 1% acetic acid. IC50 values were determined graphically. […]

[7] = tested on: A2780; test: SRB growth inhibition assay, A2780; type: cell-based, human; conditions: 96 h exposure
Procedure: as §3
(§5) Growth inhibition assay. The Sulforhodamine B (SRB) assay was used to determine growth inhibition potency of platinum drugs (10). The cells were seeded in 96-well microtitre plates at 3-8×10^3 cells/well in 160 μL growth medium and allowed to attach overnight. Platinum agents were then added after serial dilution in quadruplicate wells and exposed to cells for 2 or 96 hours. After the 2 hours drug incubations were complete, plates were washed free of drug with phosphate-buffered saline (PBS) and then refed with normal growth medium for a further 94 hours. Quantitation of cell growth in treated and control wells was then assessed using 0.4% SRB dissolved in 1% acetic acid. IC50 values were determined graphically.
(§6) Of special interest is the remarkably low value for 4 (Fmoc) in A2780 cells.

[8] = tested on: CH1; test: SRB growth inhibition assay, CH1; type: cell-based, human; conditions: 96 h exposure
Procedure: as §3, §5, §6

[9] = tested on: CH1/CDDP; test: SRB growth inhibition assay, CH1/CDDP; type: cell-based, human; conditions: for IC50: 96 h exposure; for RF CH1/CDDP: IC50 resistant/IC50 parent line, 96 h
Procedure: as §3, §4

[10] = tested on: 41M; test: SRB growth inhibition assay, 41M; type: cell-based, human; conditions: 96 h exposure
Procedure: as §3, §5, §6

[11] = tested on: 41M/CDDP; test: SRB growth inhibition assay, 41M/CDDP; type: cell-based, human; conditions: for IC50: 96 h exposure, read-out: 96H IC50 CH1/CDDP; for RF CH1/CDDP: IC50 resistant/IC50 parent line, 96 h
Procedure: as §3, §5, §6

[12] = pH 5, 37° C., time 42 d (2), 30 d (3), 41 d (4)
[13] = pH 6, 37° C., time 42 d (2), 42 d (3), 41 d (4)
[14] = pH 7, 37° C., time 25 d (2), 41 d (4)

## N.N.N.N.NCCCCCCN.[Cl][Pt+].[Cl][Pt+] [1,1/tt, [trans-{PtCl(NH3)2}2H2N(CH2)6NH2]^2+, reference compound]
[1]
  Accumulation L1210/DDP: 0.67 (0.21) attamol Pt complex/cell
[2]
  IC50: 3700 nM
[3]
  Accumulation L1210/0: 3.8 (0.70) attamol Pt complex/cell
[4]
  IC50: 16 µM
  RF, resistance factor: 4.3

## CC(C)(C)OC(=O)N(CCCN)CCCCN.N.N.N.N.[Cl-].[Cl-].[Cl][Pt+].[Cl][Pt+] [Compound 2, [{trans-Pt(NH3)2Cl}2——N^4-BOC-spermidine-N^1,N^8]Cl2]
[1]
  Accumulation L1210/DDP: 4.8 (0.75) attamol Pt complex/cell
[5]; [12]
  % 1, corrected for the different extinction coefficients at 215 nm: [15.1] %
[5]; pH 5, 37° C.
  Rate constant for the deprotection: 4.65 (±0.04) · 10^−8 s^−1
[5]; [13]
  % 1, corrected for the different extinction coefficients at 215 nm: [13.8] %
[5]; pH 6, 37° C.
  Rate constant for the deprotection: 4.29 (±0.05) · 10^−8 s^−1
[5]; pH 6.6, 37° C.
  Rate constant for the deprotection: 3.51 (±0.05) · 10^−8 s^−1
[5]; [14]
  % 1, corrected for the different extinction coefficients at 215 nm: [6.6] %
[5]; pH 7, 37° C.
  Rate constant for the deprotection: 3.12 (±0.04) · 10^−8 s^−1
[2]
  IC50: 1250 nM
[6]
  IC50: 19 µM
  RF A2780/CDDP: 9.0
[3]
  Accumulation L1210/0: 5.0 (0.63) attamol Pt complex/cell
[7]
  IC50: 2.1 µM
[8]
  IC50: 8 µM
[4]
  IC50: 4.6 µM
  RF, resistance factor: 3.7
[9]
  IC50: 11 µM
  RF CH1/CDDP: 1.4
[10]
  IC50: 17 µM

## N.N.N.N.NCCCCN(CCCN)C(=O)OCc1ccccc1.[Cl-].[Cl-].[Cl][Pt+].[Cl][Pt+] [Compound 3, [{trans-Pt(NH3)2Cl}2— —N^4-CBz-spermidine-N^1,N^8]Cl2]
[5]; [12]
  % 1, corrected for the different extinction coefficients at 215 nm: [0.13] %
  % 1 (percentage of 1 of the overall integration in the chromatogram after incubation): 0.05%
[5]; pH 5 and 6, 37° C., over the complete timecourse
  amount of 1 detected in the samples: below 0.1%
[5]; [13]
  % 1, corrected for the different extinction coefficients at 215 nm: [0.12] %
  % 1 (percentage of 1 of the overall integration in the chromatogram after incubation): 0.05%
[6]
  IC50: 100 µM
  RF A2780/CDDP: 4.2
[7]
  IC50: 24 µM
[8]
  IC50: 25 µM
[9]
  IC50: 43 µM
  RF CH1/CDDP: 1.7
[10]
  IC50: > 100 µM

## N.N.N.N.NCCCCN(CCCN)C(=O)OCC1c2ccccc2-c2ccccc21.[Cl-].[Cl-].[Cl][Pt+].[Cl][Pt+] [Compound 4, [{trans-Pt(NH3)2Cl}2——N^4-Fmoc-spermidine-N^1,N^8]Cl2]
[5]; [12]
  % 1, corrected for the different extinction coefficients at 215 nm: [1.0] %
  % 1 (percentage of 1 of the overall integration in the chromatogram after incubation): 0.14%
[5]; pH 5, 37° C.
  Rate constant for the deprotection: 3.99 (±0.96) · 10^−9 s^−1
[5]; pH 5 and 6, 37° C.
  hydrolyzed species observed (HPLC profile): only minor amounts
[5]; [13]
  % 1, corrected for the different extinction coefficients at 215 nm: [3.0] %
  % 1 (percentage of 1 of the overall integration in the chromatogram after incubation): 0.45%
[5]; pH 6, 37° C.
  Rate constant for the deprotection: 9.74 (±0.88) · 10^−9 s^−1
[5]; [14]
  % 1, corrected for the different extinction coefficients at 215 nm: [19.6] %
  % 1 (percentage of 1 of the overall integration in the chromatogram after incubation): 3.4%
[5]; pH 7, 37° C.
  Rate constant for the deprotection: 6.12 (±0.09) · 10^−8 s^−1
[5]; pH 7 and 8, 37° C.
  free spermidine complex released (HPLC profile): considerable amounts
[5]; pH 8, 37° C., time 30 d (4)
  % 1, corrected for the different extinction coefficients at 215 nm: [35.2] %
  % 1 (percentage of 1 of the overall integration in the chromatogram after incubation): 7.3%
[5]; pH 8, 37° C.
  Rate constant for the deprotection: 1.44 (±0.07) · 10^−7 s^−1
[6]
  IC50: 65 µM
  RF A2780/CDDP: 77
[7]
  IC50: 0.84 µM
[8]
  IC50: 46 µM
[9]
  IC50: 62 µM
  RF CH1/CDDP: 1.3
[10]
  IC50: > 100 µM

## CC(=O)N(CCCN)CCCCN.N.N.N.N.[Cl-].[Cl-].[Cl][Pt+].[Cl][Pt+] [Compound 5, [{trans-Pt(NH3)2Cl}2-μ-N^4—CH3CO-spermidine-N^1,N^8]Cl2]
[6]
  IC50: 54 µM
  RF A2780/CDDP: 3.9
[7]
  IC50: 14 µM
[11]
  IC50: 24 µM
  RF CH1/CDDP: 1.4
[8]
  IC50: 7.4 µM
[9]
  IC50: 12.5 µM
  RF CH1/CDDP: 1.7
[10]
  IC50: 17.5 µM

## N.N.N.N.NCCCCN(CCCN)C(=O)C(F)(F)F.[Cl-].[Cl-].[Cl][Pt+].[Cl][Pt+] [Compound 7, [{trans-Pt(NH3)2Cl}2-μ-N^4—CF3CO-spermidine-N^1,N^8]Cl2]
[5]; pH 6, 37° C.
  Rate constant for the deprotection: 4.44 (±0.11) · 10^−8 s^−1
[5]; pH 7, 37° C.
  Rate constant for the deprotection: 2.73 (±0.06) · 10^−7 s^−1
[5]; pH 8, 37° C.
  Rate constant for the deprotection: 1.79 (±0.03) · 10^−6 s^−1
[6]
  IC50: 46 µM
  RF A2780/CDDP: 6.8
[7]
  IC50: 6.8 µM
[11]
  IC50: 19 µM
  RF CH1/CDDP: 5.1
[8]
  IC50: 2.4 µM
[9]
  IC50: 5 µM
  RF CH1/CDDP: 2.1
[10]
  IC50: 3.7 µM

## N.N.[Cl][Pt][Cl] [cisplatin, reference compound]
[1]
  Accumulation L1210/DDP: 1.5 (0.76^ attamol Pt complex/cell
[2]
  IC50: 1300 nM
[6]
  IC50: 12 µM
  RF A2780/CDDP: 7.5
[3]
  Accumulation L1210/0: 5.0 (0.89) attamol Pt complex/cell
[7]
  IC50: 1.6 µM
[8]
  IC50: 0.34 µM
[4]
  IC50: 59 µM
  RF, resistance factor: 44
[9]
  IC50: 1.1 µM
  RF CH1/CDDP: 3.2
[10]
  IC50: 2.3 µM
